{
  "source": "patent US10017791B2",
  "about": "“Coryneform bacterium transformant and process for producing 4-hydroxybenzoic acid or salt thereof using the same” (GREEN PHENOL DEVELOPMENT CO., LTD., priority 2014, dated 2018)",
  "target": "T1, chorismate-pyruvate lyase of Citrobacter youngae (Citrobacter youngae, UniProt A0ABM8MN84, A17E/A70K/G54A/S20A/T66M)",
  "T1 sequence (A0ABM8MN84 1-165 A17E/S20A/G54A/T66M/A70K)": "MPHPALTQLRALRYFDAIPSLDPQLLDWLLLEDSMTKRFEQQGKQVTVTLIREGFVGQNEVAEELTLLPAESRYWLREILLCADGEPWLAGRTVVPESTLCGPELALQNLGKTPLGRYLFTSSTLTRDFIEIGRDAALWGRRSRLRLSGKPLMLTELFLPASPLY",
  "experiment": "Product inhibition of chorismate-pyruvate lyase activity by 4-HBA (IC50)",
  "format": "biochemical",
  "details": "cell lysate supernatant of strain HBA13",
  "data": [
    {"smiles": "O=C(O)c1ccc(O)cc1", "note": "[Strain 4-HBA, 4-hydroxybenzoic acid]", "values": [
      {"measurement": "IC50", "value": 67, "unit": "µM"}
    ]}
  ]
}
